Numbering of substitutions follows the chain as printed.

What all share (format): biochemical
One assay has as its target T1, Ab1 (h) (Homo sapiens, UniProt P00519).
T1 construct: purchased Eurofins
Nature of the assay: Radioisotope labeling kinase assay (Eurofins), Ab1. To be noted: 1 μM compound; read-out: Inhibitory activity per unit concentration/Activity % Ab1 (h). As to the method: (§1) An activity to a human recombinant protein kinase of a series of compounds was determined by a radioisotope labeling method, which was provided by Eurofins Company. A compound to be detected was mixed with a corresponding protein kinase buffer (20 mM propyl sulfonate (MOPS, […].), 1 mM EDTA, 0.10 β-mercaptoethanol, 0.010 Brij-35, […], and 1 mg/mL BSA), the mixture was added into a reaction system (100 μM reaction substrate […], 8 mM MOPS with a pH value of 7.0, 10 mM MgAcetate, 0.2 mM EDTA, and a certain concentration of γ-^33P-ATP). After adding an MgATP composite solution, the reaction was started at room temperature for 40 minutes, and the reaction was terminated by adding 5 μl of […] solution. Then, 10 μl of reaction solution was dropwise added onto a filter and washed with 75 mM phosphoric acid solution for three times, 5 minutes each time, then washed with methanol once again, and dried and subjected to scintillation counting.

Another assay has as its target T2, BTK (h) (Homo sapiens, UniProt Q06187).
T2 construct: purchased Eurofins
Nature of the assay: Radioisotope labeling kinase assay (Eurofins), BTK. To be noted: 1 μM compound; read-out: Inhibitory activity per unit concentration/Activity % BTK (h). As to the method:
as §1

The target in the next assay is T3, Flt3 (h) (Homo sapiens, UniProt P36888).
T3 construct: purchased Eurofins
T3 sequence (P36888 27-993): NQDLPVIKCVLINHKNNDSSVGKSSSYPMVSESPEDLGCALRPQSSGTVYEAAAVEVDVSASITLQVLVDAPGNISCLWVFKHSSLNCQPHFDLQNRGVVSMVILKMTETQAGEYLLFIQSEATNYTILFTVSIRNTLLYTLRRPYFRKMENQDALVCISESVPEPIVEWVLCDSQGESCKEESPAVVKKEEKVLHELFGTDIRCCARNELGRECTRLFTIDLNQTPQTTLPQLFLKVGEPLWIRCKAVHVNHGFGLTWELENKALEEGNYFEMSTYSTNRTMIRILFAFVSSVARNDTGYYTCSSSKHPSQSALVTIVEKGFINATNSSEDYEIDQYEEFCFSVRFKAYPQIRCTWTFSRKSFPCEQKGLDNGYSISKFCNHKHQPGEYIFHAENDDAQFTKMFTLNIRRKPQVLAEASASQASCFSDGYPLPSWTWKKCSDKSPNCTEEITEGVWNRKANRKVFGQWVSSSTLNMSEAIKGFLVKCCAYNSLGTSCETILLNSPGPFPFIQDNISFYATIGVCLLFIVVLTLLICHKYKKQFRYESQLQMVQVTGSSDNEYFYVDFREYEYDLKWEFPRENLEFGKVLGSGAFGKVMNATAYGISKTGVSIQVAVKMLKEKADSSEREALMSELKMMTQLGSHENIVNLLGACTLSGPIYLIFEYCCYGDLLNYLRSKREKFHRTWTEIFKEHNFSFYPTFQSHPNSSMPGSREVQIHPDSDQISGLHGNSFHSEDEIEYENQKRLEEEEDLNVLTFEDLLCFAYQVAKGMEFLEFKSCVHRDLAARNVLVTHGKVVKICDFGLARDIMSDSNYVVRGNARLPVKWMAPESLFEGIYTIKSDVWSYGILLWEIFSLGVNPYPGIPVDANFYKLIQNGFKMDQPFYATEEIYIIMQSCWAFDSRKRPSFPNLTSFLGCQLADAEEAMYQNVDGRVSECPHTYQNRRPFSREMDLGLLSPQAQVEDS
Nature of the assay: Radioisotope labeling kinase assay (Eurofins), Flt3. The following applies: 1 μM compound; read-out: Inhibitory activity per unit concentration/Activity % Flt3 (h). On the procedure:
as §1

Another assay deals with T4, Flt3 (D835Y) (h) (Homo sapiens, UniProt P36888, D835Y).
T4 construct: purchased Eurofins
T4 sequence (P36888 27-993 D835Y): T3 sequence (P36888 27-993) with D809Y
Description: Radioisotope labeling kinase assay (Eurofins), Flt3 (D835Y). To be noted: 1 μM compound; read-out: Inhibitory activity per unit concentration/Activity % Flt3 (D835Y) (h). On the procedure: as §1

Another assay has as its target T5, JAK3 (h) (Homo sapiens, UniProt P52333).
T5 construct: purchased Eurofins
T5 sequence (P52333 1-1124): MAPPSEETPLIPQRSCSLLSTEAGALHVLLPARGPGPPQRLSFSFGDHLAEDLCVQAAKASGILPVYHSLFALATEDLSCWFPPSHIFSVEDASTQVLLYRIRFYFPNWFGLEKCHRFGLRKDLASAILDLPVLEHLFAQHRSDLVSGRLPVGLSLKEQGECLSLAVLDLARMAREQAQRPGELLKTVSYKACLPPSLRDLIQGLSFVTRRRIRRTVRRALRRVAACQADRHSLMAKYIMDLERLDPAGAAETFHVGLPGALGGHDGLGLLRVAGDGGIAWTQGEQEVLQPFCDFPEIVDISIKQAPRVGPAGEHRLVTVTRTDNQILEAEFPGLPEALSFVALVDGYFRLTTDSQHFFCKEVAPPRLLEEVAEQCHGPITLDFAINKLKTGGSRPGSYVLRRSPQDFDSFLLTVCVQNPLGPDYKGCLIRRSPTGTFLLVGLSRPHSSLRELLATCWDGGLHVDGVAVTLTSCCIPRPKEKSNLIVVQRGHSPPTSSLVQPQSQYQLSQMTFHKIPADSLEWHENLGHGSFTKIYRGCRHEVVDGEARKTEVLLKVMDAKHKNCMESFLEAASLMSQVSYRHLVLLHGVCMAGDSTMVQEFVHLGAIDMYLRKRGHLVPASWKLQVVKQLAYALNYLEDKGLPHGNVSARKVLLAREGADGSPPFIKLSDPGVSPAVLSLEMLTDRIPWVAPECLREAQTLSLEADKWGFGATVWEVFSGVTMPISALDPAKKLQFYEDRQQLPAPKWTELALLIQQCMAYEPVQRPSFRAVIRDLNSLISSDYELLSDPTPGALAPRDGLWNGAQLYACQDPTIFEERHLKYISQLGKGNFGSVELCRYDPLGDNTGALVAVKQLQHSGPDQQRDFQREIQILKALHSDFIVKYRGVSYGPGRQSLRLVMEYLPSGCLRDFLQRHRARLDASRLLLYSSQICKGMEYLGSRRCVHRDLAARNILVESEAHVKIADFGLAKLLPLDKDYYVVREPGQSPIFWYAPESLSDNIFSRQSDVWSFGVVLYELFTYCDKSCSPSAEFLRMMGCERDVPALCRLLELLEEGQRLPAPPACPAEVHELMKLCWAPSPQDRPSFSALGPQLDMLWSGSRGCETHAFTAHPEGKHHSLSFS
Nature of the assay: Radioisotope labeling kinase assay (Eurofins), JAK3. The following applies: 1 μM compound; read-out: Inhibitory activity per unit concentration/Activity % JAK3 (h). As to the method: as §1

T2 sequence (Q06187 whole entry): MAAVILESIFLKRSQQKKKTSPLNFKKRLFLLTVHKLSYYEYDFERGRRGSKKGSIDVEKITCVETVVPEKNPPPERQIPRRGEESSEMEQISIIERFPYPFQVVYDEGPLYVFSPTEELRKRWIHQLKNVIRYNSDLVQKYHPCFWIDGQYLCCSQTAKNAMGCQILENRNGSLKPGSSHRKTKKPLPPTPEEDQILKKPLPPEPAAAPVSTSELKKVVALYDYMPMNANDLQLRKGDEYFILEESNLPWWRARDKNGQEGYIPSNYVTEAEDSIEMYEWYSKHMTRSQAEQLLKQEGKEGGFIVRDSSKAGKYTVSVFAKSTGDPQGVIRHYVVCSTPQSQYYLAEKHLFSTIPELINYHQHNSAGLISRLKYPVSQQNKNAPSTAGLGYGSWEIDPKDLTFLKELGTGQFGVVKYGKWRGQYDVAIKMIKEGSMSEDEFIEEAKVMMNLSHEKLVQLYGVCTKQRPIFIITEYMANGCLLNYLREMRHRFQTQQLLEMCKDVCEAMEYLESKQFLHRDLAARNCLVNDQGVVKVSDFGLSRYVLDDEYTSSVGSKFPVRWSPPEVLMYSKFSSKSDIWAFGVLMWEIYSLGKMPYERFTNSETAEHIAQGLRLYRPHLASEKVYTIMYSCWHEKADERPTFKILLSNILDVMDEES
T1 sequence (P00519 whole entry): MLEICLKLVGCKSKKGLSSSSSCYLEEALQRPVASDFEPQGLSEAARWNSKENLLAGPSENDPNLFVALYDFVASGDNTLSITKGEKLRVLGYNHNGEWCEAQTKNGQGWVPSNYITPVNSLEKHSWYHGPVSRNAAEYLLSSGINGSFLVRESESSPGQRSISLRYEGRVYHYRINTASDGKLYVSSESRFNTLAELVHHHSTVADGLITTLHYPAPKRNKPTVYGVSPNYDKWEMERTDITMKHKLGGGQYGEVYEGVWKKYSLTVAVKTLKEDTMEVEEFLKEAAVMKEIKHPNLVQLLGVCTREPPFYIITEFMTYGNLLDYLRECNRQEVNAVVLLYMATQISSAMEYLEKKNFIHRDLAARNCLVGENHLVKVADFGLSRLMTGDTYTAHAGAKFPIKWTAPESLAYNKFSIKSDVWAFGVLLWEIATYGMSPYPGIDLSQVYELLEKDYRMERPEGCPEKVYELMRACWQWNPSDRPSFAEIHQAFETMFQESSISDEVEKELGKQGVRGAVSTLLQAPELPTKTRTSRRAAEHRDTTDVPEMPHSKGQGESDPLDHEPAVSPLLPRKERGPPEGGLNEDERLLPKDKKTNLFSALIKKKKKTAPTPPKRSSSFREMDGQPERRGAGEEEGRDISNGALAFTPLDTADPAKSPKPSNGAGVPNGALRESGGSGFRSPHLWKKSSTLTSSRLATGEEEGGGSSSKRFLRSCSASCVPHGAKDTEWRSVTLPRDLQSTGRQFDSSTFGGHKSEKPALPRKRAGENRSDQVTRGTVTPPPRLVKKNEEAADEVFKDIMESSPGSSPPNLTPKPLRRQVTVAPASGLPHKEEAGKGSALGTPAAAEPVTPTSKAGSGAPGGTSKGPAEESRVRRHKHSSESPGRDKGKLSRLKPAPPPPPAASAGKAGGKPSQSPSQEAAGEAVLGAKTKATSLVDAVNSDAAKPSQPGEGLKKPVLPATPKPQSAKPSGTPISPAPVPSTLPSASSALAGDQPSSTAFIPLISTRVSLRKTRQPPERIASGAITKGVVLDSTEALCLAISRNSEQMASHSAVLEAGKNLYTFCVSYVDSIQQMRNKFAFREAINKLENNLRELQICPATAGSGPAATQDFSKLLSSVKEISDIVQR

Take `O=C(/C=C/COc1ccc2cc1Nc1nccc(n1)-c1cccc(c1)COC/C=C/COC2)N1CCOCC1` [XVI-22]: the activity at 1 µM at Ab1 (h) was 81%; on BTK (h) it was 82%; on Flt3 (h), 96%; on Flt3 (D835Y) (h), 41%; on JAK3 (h), 100%.

As for `C1=C/COCc2ccc(OC/C=C/CN3CCOCC3)c(c2)Nc2nccc(n2)-c2cccc(c2)COC/1` [XVI-23], the activity at 1 µM on Ab1 (h) was found to be 85%; at BTK (h) it was 90%; on Flt3 (h), 78%; at Flt3 (D835Y) (h), 27%; on JAK3 (h), 10%.

Turning to `CN1CCC(NC(=O)/C=C/COc2ccc3cc2Nc2nccc(n2)-c2cccc(c2)COC/C=C/COC3)C1` (centres unmarked) [XVI-24], the activity at 1 µM at Ab1 (h) amounted to 81%; on BTK (h) it was 86%; at Flt3 (h), 82%; at Flt3 (D835Y) (h), 50%; on JAK3 (h), 88%.

As to `CN1C/C=C/COCc2cccc(c2)-c2ccnc(n2)Nc2cc(cc(NC(=O)/C=C/CN3CCCC3)c2)C1` [XVI-25], the activity at 1 µM on Ab1 (h) is 35%; at BTK (h) it was 64%; at Flt3 (h), 6%; at Flt3 (D835Y) (h) it was 0%; on JAK3 (h), 83%.

For the molecule `CN1C/C=C/COCc2cccc(c2)-c2ccnc(n2)Nc2cc(cc(NC(=O)/C=C/c3ccc(C#N)cc3)c2)C1` [XVI-27], the activity at 1 µM at Ab1 (h) turned out to be 45%; at BTK (h), 77%; at Flt3 (h), 8%; on Flt3 (D835Y) (h), 2%; on JAK3 (h), 52%.

`CN1C/C=C/COCc2cccc(c2)-c2ccnc(n2)Nc2cc(cc(NC(=O)/C=C/C(F)(F)F)c2)C1` [XVI-29]: the activity at 1 µM at Ab1 (h) was found to be 60%; at BTK (h) it was 78%; on Flt3 (h), 10%; at Flt3 (D835Y) (h), 3%; at JAK3 (h) it was 36%.

Turning to `CN1C/C=C/COCc2cccc(c2)-c2ccnc(n2)Nc2cc(cc(NC(=O)/C=C/CN3CCOCC3)c2)C1` [XVI-30], the activity at 1 µM was 55% on Ab1 (h); 66% on BTK (h); 7% at Flt3 (h); 2% on Flt3 (D835Y) (h); 61% at JAK3 (h).

In the case of `C=CC(=O)Nc1cc2cc(c1)Nc1nccc(n1)-c1cccc(c1)COC/C=C/CN(C)C2` [XVI-31], the activity at 1 µM on Ab1 (h) turned out to be 50%; on BTK (h) it was 86%; at Flt3 (h), 7%; at Flt3 (D835Y) (h), 2%; at JAK3 (h) it was 57%.

Take `CN1C/C=C/COCc2cccc(c2)-c2ccnc(n2)Nc2cc(cc(NC(=O)/C=C/c3cnc[nH]3)c2)C1` [XVI-32]: the activity at 1 µM on Ab1 (h) turned out to be 50%; at BTK (h), 82%; at Flt3 (h), 5%; at Flt3 (D835Y) (h), 0%; on JAK3 (h) it was 30%.

Turning to `O=C(/C=C/C(=O)N1CCCC1)Nc1cc2cc(c1)Nc1nccc(n1)-c1cccc(c1)COC/C=C/COC2` [XVI-33], the activity at 1 µM amounted to 38% on Ab1 (h); 86% on BTK (h); 2% at Flt3 (h); 10% at Flt3 (D835Y) (h); 17% on JAK3 (h).

Take `C1=C/COCc2ccc(O/C=C/CN3CCCC3)c(c2)Nc2nccc(n2)-c2cccc(c2)CCC/1` [XVI-34]: the activity at 1 µM at Ab1 (h) amounted to 98%; on BTK (h) it was 87%; at Flt3 (h), 125%; at Flt3 (D835Y) (h), 79%; on JAK3 (h) it was 87%.

`CCCC#CC(=O)Nc1cc2cc(c1)Nc1nccc(n1)-c1cccc(c1)COC/C=C/COC2` [XVII-2]: the activity at 1 µM at Ab1 (h) was 13%; at BTK (h), 36%; on Flt3 (h), 5%; at Flt3 (D835Y) (h), -1%; on JAK3 (h), 36%.

Turning to `O=C(C#CCN1CCOCC1)Nc1cc2cc(c1)Nc1nccc(n1)-c1cccc(c1)COC/C=C/COC2` [XVII-3], the activity at 1 µM is 8% at Ab1 (h); 17% at BTK (h); 2% at Flt3 (h); 0% on Flt3 (D835Y) (h); 14% on JAK3 (h).

These data come from patent publication US20240425518A1, “N-MACROCYCLIC AMIDE COMPOUNDS, PREPARATION METHODS THEREOF AND APPLICATIONS THEREOF AS MEDICAMENTS” (Chengdu FANXI Biopharma Co., Ltd., priority 2023, published 2024).
